Earlier results on 3 substances are cited in patent US7785824B2, “Hydrolysed casein product comprising tripeptides IPP and/or VPP” (Conopco Inc., priority 2003, dated 2010).

What is called pIC50 is −log10 of the IC50, conventionally taken in molar units.

pIC50: −log10 of the molar value.

Data set [1] deals with Angiotensin I Converting Enzyme (ACE) (Homo sapiens, UniProt P12821). Particulars: concentration which results in 50% inhibition of the ACE activity.
The test system of the next data set is hypertensive humans. Particulars: in sour milk, placebo-controlled study.

Sequence of Angiotensin I Converting Enzyme (ACE) (P12821 30-1306, species assumed): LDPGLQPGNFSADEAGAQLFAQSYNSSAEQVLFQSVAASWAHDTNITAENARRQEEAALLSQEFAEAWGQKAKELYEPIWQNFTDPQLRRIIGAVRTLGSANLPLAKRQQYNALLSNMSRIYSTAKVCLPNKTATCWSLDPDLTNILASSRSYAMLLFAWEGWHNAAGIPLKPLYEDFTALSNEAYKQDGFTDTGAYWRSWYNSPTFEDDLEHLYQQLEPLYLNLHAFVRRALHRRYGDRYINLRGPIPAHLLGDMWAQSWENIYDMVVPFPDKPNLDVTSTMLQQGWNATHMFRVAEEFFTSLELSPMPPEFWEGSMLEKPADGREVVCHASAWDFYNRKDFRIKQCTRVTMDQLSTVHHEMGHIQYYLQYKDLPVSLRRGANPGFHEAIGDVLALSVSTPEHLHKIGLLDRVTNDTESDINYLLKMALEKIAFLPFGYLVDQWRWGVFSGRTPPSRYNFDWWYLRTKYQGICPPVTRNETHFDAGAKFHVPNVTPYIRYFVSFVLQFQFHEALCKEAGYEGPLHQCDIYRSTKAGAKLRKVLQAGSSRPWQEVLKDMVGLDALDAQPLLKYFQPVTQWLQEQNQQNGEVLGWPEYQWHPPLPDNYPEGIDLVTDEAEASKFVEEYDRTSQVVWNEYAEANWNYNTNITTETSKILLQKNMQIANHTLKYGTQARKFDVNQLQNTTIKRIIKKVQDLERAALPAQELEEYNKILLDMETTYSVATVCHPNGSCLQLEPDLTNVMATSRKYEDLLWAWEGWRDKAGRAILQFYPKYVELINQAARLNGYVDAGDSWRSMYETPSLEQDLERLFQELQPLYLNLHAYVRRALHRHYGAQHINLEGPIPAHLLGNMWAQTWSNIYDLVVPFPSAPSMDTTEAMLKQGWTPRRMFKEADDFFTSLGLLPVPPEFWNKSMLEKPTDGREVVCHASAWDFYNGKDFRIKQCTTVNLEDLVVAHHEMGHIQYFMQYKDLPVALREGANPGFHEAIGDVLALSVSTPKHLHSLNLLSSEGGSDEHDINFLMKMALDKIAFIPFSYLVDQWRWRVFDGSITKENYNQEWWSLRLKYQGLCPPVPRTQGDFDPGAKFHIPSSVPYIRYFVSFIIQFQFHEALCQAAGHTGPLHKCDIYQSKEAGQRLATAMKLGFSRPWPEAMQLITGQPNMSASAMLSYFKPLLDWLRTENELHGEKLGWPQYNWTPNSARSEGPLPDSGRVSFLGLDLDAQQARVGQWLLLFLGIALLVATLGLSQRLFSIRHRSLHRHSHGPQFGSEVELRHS

Turning to Ile-Pro-Pro [IPP], in data set [1], the pIC50 is 5.30. In addition, the “blood pressure lowering effect” value in the data set on hypertensive humans is listed as “blood pressure lowering effect”.
Turning to Leu-Pro-Pro [LPP], the pIC50 in data set [1] was 5.02.
In the case of Val-Pro-Pro [VPP], in data set [1], the pIC50 was 5.05. Moreover, the “blood pressure lowering effect” value in the data set on hypertensive humans is given as “blood pressure lowering effect”.
